In ChEMBL document CHEMBL4118149, “1,2,4-Triazolsulfone: A novel isosteric replacement of acylsulfonamides in the context of NaV1.7 inhibition” (Bioorg Med Chem Lett, 2018):

Experiments:
[1] = Volume of distribution at steady state in Sprague-Dawley rat at 0.5 mg/kg, iv; assay type: ADME, organism-based; conditions: in vivo, read-out: Vdss
[2] = Kinetic solubility of the compound in simulated intestinal fluid; assay type: physicochemical; conditions: simulated gi fluid
[3] = Oral bioavailability in Sprague-Dawley rat at 10 mg/kg; assay type: ADME, organism-based; conditions: in vivo
[4] = Dissociation constant, pKa of the compound by capillary electrophoresis method; assay type: physicochemical

Structure (SMILES)	pKa [4]	further results
O=S(=O)(CC1CC1)c1nnc(-c2cc(F)c(-c3cnc(Oc4ccccc4C(F)(F)F)c(Cl)c3)cc2F)[nH]1		Vd [1]: 0.37 L/kg; Kinetic solubility [2]: 101 µM; bioavailability [3]: 140%
O=C(O)CNC(=O)c1cc(F)c(COc2ccc(Cl)c(Cl)c2)cc1F	3.4	
CC(=O)NS(=O)(=O)c1cc(F)c(COc2ccc(Cl)c(Cl)c2)cc1F	3.7	
O=c1[nH]c(-c2cc(F)c(COc3ccc(Cl)c(Cl)c3)cc2F)no1	4.3	
CC(C)COc1ncc(-c2cc(F)c(-c3nnc(S(=O)(=O)C4CCC4)[nH]3)cc2F)cc1Cl		Vd [1]: 0.7 L/kg
O=C(O)c1cc(F)c(COc2ccc(Cl)c(Cl)c2)cc1F	3.1	
CS(=O)(=O)NC(=O)c1cc(F)c(COc2ccc(Cl)c(Cl)c2)cc1F	3.1	
CS(=O)(=O)c1nnc(-c2cc(F)c(COc3ccc(Cl)c(Cl)c3)cc2F)[nH]1	4.8	
